Here are results for 14 compounds from PubChem BioAssay (NCI).

Some test systems named below: CAKI-1 renal; EKVX NSCLC; HT29 colon; NCI/ADR-RES ovarian; PC-3 prostate; SF-295 CNS; SK-MEL-5 melanoma; SN12C renal; SNB-75 CNS.
Common to all, as to test: NCI anticancer screen, dose series, 48 h

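The compound was tested at five concentrations on cells cultured in 96-well plates, with a 48-hour exposure period. GI50: concentration for 50% inhibition of growth. The concentration for full growth arrest is given as TGI.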 Where a SMILES comes first, the peptide text is derived from it. The star is where a group is joined. Boc = CC(C)(C)OC(=O)*

For `O=c1[nH]n(CCc2ccccc2CCl)c2ccc([N+](=O)[O-])cc12`, the TGI with CAKI-1 renal is more than 100 µM; in the test with EKVX NSCLC, 36.1 µM; in the test with HT29 colon, more than 100 µM; in the test on NCI/ADR-RES ovarian, more than 100 µM; in the test on PC-3 prostate, more than 100 µM; in the test with SF-295 CNS, more than 100 µM. Besides, the TGI in the test with SK-MEL-5 melanoma and in the test with SN12C renal was more than 100 µM each time.
On to `O=C(O)Cn1c2c(c3c1-c1ccccc1C3=O)C(=O)CCC2`, for which the GI50 in the test with CAKI-1 renal, with EKVX NSCLC, in the test on HT29 colon, with NCI/ADR-RES ovarian, with SF-295 CNS and in the test with SK-MEL-5 melanoma was more than 100 µM throughout. In addition, the GI50 in the test on SN12C renal and in the test on SNB-75 CNS was more than 100 µM each time. Besides, the TGI in the test with CAKI-1 renal, with EKVX NSCLC, in the test with HT29 colon, with NCI/ADR-RES ovarian, in the test with SF-295 CNS and in the test with SK-MEL-5 melanoma was more than 100 µM throughout. Also, the TGI in the test on SN12C renal and in the test with SNB-75 CNS was more than 100 µM in each case.
For `Cc1ccc(S(=O)(=O)OCCC2CN(C(=O)OCc3ccccc3)C(C)(C)O2)cc1` (stereo not given), the TGI was more than 100 µM in the test with CAKI-1 renal; more than 100 µM in the test with EKVX NSCLC; 15.7 µM in the test on NCI/ADR-RES ovarian; 50 µM in the test on PC-3 prostate; more than 100 µM in the test on SF-295 CNS; 8.76 µM in the test with SK-MEL-5 melanoma. Moreover, in the test on SN12C renal, the TGI was more than 100 µM.
On to `O=C1C=C(N2CCN(c3ncccn3)CC2)C(=O)c2c(O)ccc(O)c21`, for which the TGI with CAKI-1 renal, with EKVX NSCLC, with HT29 colon, with NCI/ADR-RES ovarian, with PC-3 prostate and in the test with SF-295 CNS was more than 100 µM in each case. Also, the TGI in the test with SK-MEL-5 melanoma and with SN12C renal was more than 100 µM each time.
For the compound `Cn1c2ccccc2n2c3ncccc3c(=O)cc12`, the TGI in the test with CAKI-1 renal, in the test on EKVX NSCLC, in the test with HT29 colon, in the test on NCI/ADR-RES ovarian, in the test with SF-295 CNS and in the test with SK-MEL-5 melanoma was more than 100 µM each time. Besides, the TGI in the test on SN12C renal and in the test on SNB-75 CNS was more than 100 µM throughout.
Take `COc1cccc(C(C#N)NNC(=O)c2c(Cl)c(Cl)c(Cl)c(Cl)c2-c2nc3ccc(C(=O)c4ccccc4)cc3[nH]2)c1O` (stereo not given): the TGI was more than 100 µM in the test on CAKI-1 renal; more than 100 µM with EKVX NSCLC; more than 100 µM in the test with HT29 colon; more than 100 µM with PC-3 prostate; 4.69 µM with SF-295 CNS; 10.5 µM with SK-MEL-5 melanoma. Moreover, the results for the TGI with SN12C renal and in the test with SNB-75 CNS were 7.79 µM and 7.46 µM, respectively.
On to `Oc1c(Cl)cc2cc1-c1cc(cc(Cl)c1O)CCc1c(cc(Cl)c(O)c1Cl)-c1cc(Cl)c(c(Cl)c1O)/C=C\2`, for which the TGI in the test with HT29 colon stood at 25.2 µM; in the test on NCI/ADR-RES ovarian it was 30.8 µM; in the test on PC-3 prostate, 20.3 µM; in the test with SK-MEL-5 melanoma, 14.9 µM; in the test with SNB-75 CNS it was 17.6 µM.
`O=c1[nH]nc(-c2ccccc2)c2[nH]c3c(c12)Cc1ccccc1-3`: the TGI was more than 100 µM in the test on CAKI-1 renal; more than 100 µM in the test on EKVX NSCLC; more than 70 µM in the test on HT29 colon; more than 100 µM in the test on NCI/ADR-RES ovarian; more than 100 µM with PC-3 prostate; more than 100 µM in the test with SF-295 CNS. Moreover, the TGI with SN12C renal was more than 100 µM; in the test on SNB-75 CNS it was more than 43.3 µM.
Take `[N-]=[N+]=Nc1nc2ccccc2c(N=[N+]=[N-])c1Cl`: the TGI in the test on CAKI-1 renal, with HT29 colon, in the test with NCI/ADR-RES ovarian, in the test with PC-3 prostate, with SF-295 CNS and in the test with SK-MEL-5 melanoma was more than 100 µM each time. The TGI in the test with SN12C renal and in the test on SNB-75 CNS was more than 100 µM each time.
Take `COc1cc2nc(N3CCC[C@H](NC4=CC(=O)c5ccccc5C4=O)C3)nc(N)c2cc1OC`: the GI50 is 1.89 µM in the test with CAKI-1 renal; 2.02 µM in the test on HT29 colon; 2.34 µM in the test with NCI/ADR-RES ovarian; 1.75 µM in the test with PC-3 prostate; 1.96 µM in the test with SF-295 CNS; 1.73 µM with SK-MEL-5 melanoma. The GI50 with SN12C renal was 1.73 µM; in the test with SNB-75 CNS, 1.64 µM. Also, the TGI in the test with CAKI-1 renal was 3.91 µM; in the test with HT29 colon it was 4.07 µM; with NCI/ADR-RES ovarian it was 5.44 µM; in the test on PC-3 prostate, 3.67 µM; in the test on SF-295 CNS it was 4.06 µM; in the test on SK-MEL-5 melanoma it was 3.26 µM. For the same compound, the TGI with SN12C renal worked out at 3.51 µM; in the test on SNB-75 CNS, 3.3 µM.
Take `COC(=O)c1c2c(cc3c1CC1(Cc4cc5c(c(C)c4C1)CCC5)C3)CCC2` (stereo not given): the TGI with CAKI-1 renal, with EKVX NSCLC, with HT29 colon, with NCI/ADR-RES ovarian, in the test with PC-3 prostate and with SF-295 CNS was more than 100 µM in each case. Also, the TGI in the test with SK-MEL-5 melanoma was more than 100 µM.
Consider `Cc1cc(C)c2c(c1)C/C(=C\c1cccc(C)c1C(=O)O)C2=O`, for which the TGI in the test with CAKI-1 renal, in the test on EKVX NSCLC, in the test with HT29 colon, in the test with PC-3 prostate, with SF-295 CNS and in the test with SK-MEL-5 melanoma was more than 100 µM in each case. Moreover, the TGI with SN12C renal and in the test with SNB-75 CNS was more than 100 µM in each case.
In the case of `CC(=O)CC(=O)N1CCSC1=S`, the TGI in the test with EKVX NSCLC, with HT29 colon, in the test on PC-3 prostate, in the test with SF-295 CNS, in the test with SK-MEL-5 melanoma and in the test with SN12C renal was more than 10 µM in each case. Besides, in the test on SNB-75 CNS, the TGI was more than 10 µM.
Regarding `COC(=O)C(Cc1c[nH]c2ccccc12)NC(=O)C(Cc1c[nH]c2ccccc12)NC(=O)C(Cc1c[nH]c2ccccc12)NC(=O)C(Cc1c[nH]c2ccccc12)NC(=O)C(Cc1c[nH]c2ccccc12)NC(=O)C(Cc1c[nH]c2ccccc12)NC(=O)C(Cc1c[nH]c2ccccc12)NC(=O)OC(C)(C)C` (stereo not given) (Boc-WWWWWWW-OMe; configuration not given here), the TGI with CAKI-1 renal, with HT29 colon, with PC-3 prostate, in the test with SK-MEL-5 melanoma, in the test with SN12C renal and in the test on SNB-75 CNS was more than 100 µM each time.
